Here are results for 9 compounds from ChEMBL document CHEMBL1165847, “Urotensin-II receptor modulators as potential drugs” (J Med Chem, 2010).

Data set [1] deals with Rattus norvegicus. The data set can be described thus: Decrease in urotensin-2-induced temperature of ear pinna in rat ear-flush model at 10 ug/ml, iv for 15 mins. Type of data set: functional, organism-based.
The target of data set [2] is T1, Urotensin-2 receptor (Rattus norvegicus) (UniProt P49684).
T1 sequence (whole entry): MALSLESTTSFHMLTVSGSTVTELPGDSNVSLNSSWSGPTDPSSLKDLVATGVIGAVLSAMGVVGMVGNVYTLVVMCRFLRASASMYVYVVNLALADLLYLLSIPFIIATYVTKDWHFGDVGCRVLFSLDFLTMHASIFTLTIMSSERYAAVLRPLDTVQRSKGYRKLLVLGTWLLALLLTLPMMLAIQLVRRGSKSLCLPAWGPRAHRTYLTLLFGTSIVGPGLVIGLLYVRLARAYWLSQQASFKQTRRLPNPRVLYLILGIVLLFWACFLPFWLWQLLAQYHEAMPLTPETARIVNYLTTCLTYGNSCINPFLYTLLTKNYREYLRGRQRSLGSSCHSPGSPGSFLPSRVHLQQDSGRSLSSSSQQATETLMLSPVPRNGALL
The data set can be described thus: Antagonist activity at rat urotensin 2 receptor expressed in CHO cells assessed as calcium mobilization at 100 nM by FLIPR. Type of data set: functional, cell-based.

Data set [3] in a line: Oral bioavailability in rat. The following applies: in vivo. The class given is ADME, organism-based.
In data set [4] the target is T2, Urotensin-2 receptor (Homo sapiens, UniProt Q9UKP6).
T2 sequence (Q9UKP6 whole entry): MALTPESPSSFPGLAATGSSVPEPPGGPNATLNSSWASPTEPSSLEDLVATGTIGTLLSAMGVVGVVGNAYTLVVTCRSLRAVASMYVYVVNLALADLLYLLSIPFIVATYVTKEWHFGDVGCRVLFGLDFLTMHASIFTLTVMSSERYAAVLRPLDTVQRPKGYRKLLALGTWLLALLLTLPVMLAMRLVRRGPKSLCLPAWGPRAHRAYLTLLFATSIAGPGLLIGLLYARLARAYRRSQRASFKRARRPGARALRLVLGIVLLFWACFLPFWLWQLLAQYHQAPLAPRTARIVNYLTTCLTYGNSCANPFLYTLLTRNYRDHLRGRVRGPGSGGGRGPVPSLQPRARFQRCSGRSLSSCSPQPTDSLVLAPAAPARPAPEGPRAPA
The data set can be described thus: Binding affinity to human urotensin 2 receptor.

Data set [5] deals with T3, Urotensin-2 receptor (Rattus norvegicus, UniProt P49684).
T3 sequence (P49684 whole entry): T1 sequence (whole entry)
The data set can be described thus: (§1) Agonist activity at rat urotensin 2 receptor expressed in CHO cells assessed as calcium mobilization at 1000 nM by FLIPR. The class given is functional, cell-based.

The target in data set [6] is T2, Urotensin-2 receptor. The data set can be described thus: Agonist activity at human urotensin 2 expressed in CHO cells by FLIPR. The class given is functional, cell-based.
Data set [7] has as its target T3, Urotensin-2 receptor. The data set can be described thus: Displacement of [125I]U2 from rat urotensin 2 receptor expressed in CHO cells. Type of data set: cell-based.
The target in data set [8] is T3, Urotensin-2 receptor. The data set can be described thus: Agonist activity at rat urotensin 2 receptor expressed in CHO cells assessed as calcium mobilization by FLIPR. The class given is functional, cell-based.
For data set [9], the target named is T1, Urotensin-2 receptor (Rattus norvegicus). The data set can be described thus: Antagonist activity at rat urotensin 2 receptor expressed in CHO cells assessed as calcium mobilization at 300 nM by FLIPR. The class given is functional, cell-based. (In general: A change in cytosolic calcium serves as a functional read-out for many receptors and channels.)
For data set [10] the target is unchanged. Kind of data set: Agonist activity at rat urotensin 2 receptor expressed in CHO cells assessed as calcium mobilization at 500 nM by FLIPR. The class given is functional, cell-based.
The target is the same in data set [11]. The description is as §1. The class given is functional, cell-based.
Data set [12] shares this target. The data set can be described thus: Antagonist activity at rat urotensin 2 receptor expressed in CHO cells assessed as calcium mobilization at 10000 nM by FLIPR. Type of data set: functional, cell-based.
Data set [13] addresses T3, Urotensin-2 receptor. Kind of data set: Antagonist activity at rat urotensin 2 receptor expressed in CHO cells assessed as calcium mobilization by FLIPR. The class given is functional, cell-based.
Data set [14] concerns the target T4, Urotensin-2 receptor (Mus musculus, UniProt Q8VIH9).
T4 sequence (Q8VIH9 whole entry): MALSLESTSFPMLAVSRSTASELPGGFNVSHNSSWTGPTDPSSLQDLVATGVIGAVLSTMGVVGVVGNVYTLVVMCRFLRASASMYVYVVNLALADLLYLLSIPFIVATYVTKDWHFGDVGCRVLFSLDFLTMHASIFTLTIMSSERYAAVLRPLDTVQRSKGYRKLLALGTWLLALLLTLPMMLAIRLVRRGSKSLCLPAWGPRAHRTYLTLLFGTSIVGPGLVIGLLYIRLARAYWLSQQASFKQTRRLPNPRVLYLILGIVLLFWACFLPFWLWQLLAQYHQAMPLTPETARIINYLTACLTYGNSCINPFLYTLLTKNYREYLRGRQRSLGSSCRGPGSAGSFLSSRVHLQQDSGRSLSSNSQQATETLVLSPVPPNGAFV
The data set can be described thus: Binding affinity to mouse urotensin 2 receptor.

Data set [15] concerns Rattus norvegicus. The data set can be described thus: Plasma concentration in rat at 10 mg/kg, iv. The class given is ADME, organism-based. Set-up: dose 10 mg/kg, route intravenous. The following applies: in vivo.
Another data set deals with Aorta. Kind of data set: Vasorelaxation activity against urotensin-2-induced contraction in isolated rat aorta assessed as restoration of renal blood flow at 10 mg/kg/hr, iv. The class given is functional, organism-based.
For data set [16], the target named is T5, Urotensin-2 receptor (Macaca mulatta, UniProt Q8HYC3).
T5 sequence (Q8HYC3 whole entry): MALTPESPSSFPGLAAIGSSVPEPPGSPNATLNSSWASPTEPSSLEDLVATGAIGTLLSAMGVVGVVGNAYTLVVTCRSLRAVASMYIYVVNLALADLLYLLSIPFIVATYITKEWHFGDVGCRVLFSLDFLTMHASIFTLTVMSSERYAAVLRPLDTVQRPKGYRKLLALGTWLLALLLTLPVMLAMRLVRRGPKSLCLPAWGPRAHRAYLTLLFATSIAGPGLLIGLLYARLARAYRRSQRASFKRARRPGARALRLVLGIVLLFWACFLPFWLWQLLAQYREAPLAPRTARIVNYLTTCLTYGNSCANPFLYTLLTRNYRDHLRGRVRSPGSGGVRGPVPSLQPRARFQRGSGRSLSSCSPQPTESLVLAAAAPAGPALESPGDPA
The data set can be described thus: Binding affinity to monkey urotensin 2 receptor.

Another data set has as its target T6, Urotensin II receptor (Felis catus, UniProt Q533H1).
T6 sequence (Q533H1 whole entry): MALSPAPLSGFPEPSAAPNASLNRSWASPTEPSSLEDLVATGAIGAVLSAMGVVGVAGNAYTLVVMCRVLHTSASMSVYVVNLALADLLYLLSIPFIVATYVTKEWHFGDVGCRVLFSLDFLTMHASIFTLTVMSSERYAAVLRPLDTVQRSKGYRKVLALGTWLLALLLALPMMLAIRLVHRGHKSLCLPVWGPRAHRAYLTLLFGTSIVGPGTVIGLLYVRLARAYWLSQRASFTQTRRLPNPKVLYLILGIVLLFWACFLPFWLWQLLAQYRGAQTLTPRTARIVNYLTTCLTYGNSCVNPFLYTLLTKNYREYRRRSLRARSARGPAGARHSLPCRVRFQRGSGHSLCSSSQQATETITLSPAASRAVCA
The data set can be described thus: Binding affinity to cat urotensin 2 receptor.

Data set [17] concerns the target T3, Urotensin-2 receptor. The data set can be described thus: Binding affinity to rat urotensin 2 receptor.
For a further data set, the system named is Mus musculus. The data set can be described thus: Reduction in atherosclerotic lesion size in Apo-E knockout mouse at 30 mg/kg, po qd for 10 weeks. The class given is functional. The arrangement: scale not given: the % may be the effect or the level left.

The structures appear in SMILES notation. Where a name gives a salt, the structure may show the parent alone. Activity calls are given as the source filed them. No cut-off for these calls is given here. Where a SMILES comes first, the peptide text is derived from it. Bridges are numbered along the chain shown (N, C = ends).

The inhibition is the percentage by which the read-out fell short of the control. For orientation: bioavailability means dose-corrected exposure relative to a reference, in per cent. For the compound `CCN1CCN(c2cccc3c2CN([C@@H](CCCNS(=O)(=O)c2cccs2)c2ccc(OC)c(OC)c2)C3=O)CC1`, the result in the data set on Rattus norvegicus [1] was Active. Moreover, the inhibition in data set [2] was 74%. In [3], the bioavailability was determined as 10%.

In general, Ki refers to the equilibrium dissociation constant of an inhibitor or competing ligand from its target. Consider `CC(C)[C@H](NC(=O)c1cc2ccccc2s1)C(=O)N[C@H]1CCN(Cc2ccc(OCCCN(C)C)cc2)C1`, for which the Ki at Urotensin-2 receptor [4] was 12 nM; on Urotensin-2 receptor [5], 600 nM.

As for `CN(C)CCCOc1ccc(CN2CC[C@H](NC(=O)c3ccc(Cl)c(Cl)c3)C2)cc1`, the Ki was found to be 250 nM on Urotensin-2 receptor [6] and 3.2 nM on Urotensin-2 receptor [7].

In the case of `CCN1CCN(c2cccc3c2[C@H]2CCC[C@H](c4ccc(OC)c(OC)c4)N2C3=O)CC1`, the Ki came to 390 nM on Urotensin-2 receptor [6] and 6.3 nM at Urotensin-2 receptor [8]. The compound further came in with a bioavailability in data set [3] of 35%.

In the case of `COc1cc(Br)c(S(=O)(=O)Nc2ccc(C(F)(F)F)c(O[C@@H]3CCN(C)C3)c2)cc1OC`, the inhibition in data set [2] was 97%.

Turning to `CC(=O)N[C@@H](Cc1ccccc1)C(=O)N[C@@H](Cc1c[nH]c2ccccc12)C(=O)N[C@@H](CCCCN)C(=O)N[C@@H](Cc1ccc(O)cc1)C(N)=O` (Ac-FWKY-NH2), in [9], the result was inactive. The compound also had an inhibition constant (Ki) at Urotensin-2 receptor [7] (cho) of less than 10000 nM. Also, the Activity in data set [10] is 57%.

For the compound `CC(C)[C@H](NC(=O)[C@@H]1CSSC[C@H](NC(=O)[C@H](CC(N)=O)NC(=O)[C@H](C)N)C(=O)N[C@@H](Cc2ccccc2)C(=O)N[C@@H](Cc2c[nH]c3ccccc23)C(=O)N[C@@H](CCCCN)C(=O)N[C@@H](C)C(=O)N1)C(=O)O` (H-ANCFWKACV-OH; disulfide 3-8), the Activity in data set [11] stood at 67%. Further, in data set [12], the result was inactive.

One may read the IC50 as the concentration that gives 50% inhibition. Consider `Cc1cc(NC(=O)NCCN2CCC(O)(Cc3ccccc3)CC2)c2ccccc2n1` [PALOSURAN SULFATE], for which the inhibition constant Ki on Urotensin-2 receptor [13] is more than 1000 nM; at Urotensin-2 receptor [4] it was 5 nM; on Urotensin-2 receptor [14], more than 1000 nM; on Urotensin-2 receptor [16] it was 4 nM; at Urotensin II receptor it was more than 1000 nM. The compound also displayed a concentration for half-maximal inhibition (IC50) on Urotensin-2 receptor [4] of 3.6 nM. Moreover, in the data set on Rattus norvegicus [15], the concentration amounted to 5 µM. In the data set on Aorta, the result was Active.

With `CN(C)CCOc1cc(NS(=O)(=O)c2c(Cl)cc(C(F)(F)F)cc2Cl)ccc1Cl` [SB611812], the Ki at Urotensin-2 receptor [17] stood at 121 nM. For the same compound, in the data set on Mus musculus, the Activity came out at 64%. The bioavailability in [3] came to 100%.
